Data from the OPERA property sets (Mansouri et al. 2018).

In order of falling logP:
1. ClC(Cl)=C(Cl)C(Cl)=C(Cl)Cl  4.78
2. CN(C)c1ccc(N=Nc2ccccc2)cc1  4.58
3. CCC(C)(C)C(=O)OC1CC(C)C=C2C=CC(C)C(CCC(O)CC(O)CC(=O)O)C21 (centres undefined)  4.47
4. c1ccc(-c2nc3ccccc3s2)cc1  4.26
5. CCCNc1nc(NC(C)C)nc(SC(F)F)n1  4.23
6. CCCCC(=O)OCC(=O)C1(O)C(C)CC2C3CCC4=CC(=O)C=CC4(C)C3(F)C(O)CC21C (centres undefined)  3.87
7. Nc1ccc(C(=O)Oc2ccccc2Br)c(O)c1  3.74
8. CCCCOCc1cccc(NC(=O)OCCN2CCCCC2)c1  3.73
9. CN(C1CCCCC1)C1CCCCC1  3.71
10. O=NN(Cc1ccccc1)c1ccccc1  3.38
11. CCCCSC1=CC(=O)c2ccccc2C1=O  3.29
12. CC(=O)OCC(=O)[C@@]12OC(C)(C)O[C@@H]1C[C@H]1[C@@H]3C[C@H](F)C4=CC(=O)C=C[C@]4(C)[C@@]3(F)[C@@H](O)C[C@@]12C  3.19
13. c1ccc(CNc2ccccc2)cc1  3.13
14. CNCC(c1ccccc1)C(C)C (centres undefined)  3.12
15. CCC(C)c1ccc(O)cc1 (centres undefined)  3.08
16. CC(C)(C)c1cccc(OCC(=O)O)c1  2.96
17. CC(=O)C(=Cc1ccc(Br)cc1)C(C)=O  2.75
18. CC(C(=O)O)(c1ccccc1)c1ccccc1  2.69
19. O=[N+]([O-])c1ccc2nc(C(F)(F)F)[nH]c2c1  2.68
20. FC(F)(F)c1nc2ccccc2[nH]1  2.67
21. CNC(=O)Oc1cc(C)c(C)c(C)c1  2.66
22. O=C(O)Cc1cccc(I)c1  2.62
23. C=CCN(CC=C)CC=C  2.59
24. Cc1cccc2cc[nH]c12  2.56
25. C=CCCBr  2.53
26. C=CCOc1ccc(CC(=O)O)cc1Cl  2.48
27. CCc1ccco1  2.4
28. O=C(O)C(Cc1ccccc1)n1cccc1 (centres undefined)  2.34
29. CC(=O)N(c1ccccc1)c1ccccc1  2.02
30. CCI  2
31. NC(=O)c1ccc(I)cc1  1.99
32. CNC(=O)Oc1cccc(OC(C)C)c1  1.96
33. c1ccc(-c2ncncn2)cc1  1.93
34. Cc1ccc(-c2nc(N)nc(N)n2)cc1  1.92
35. CN(C)C1=CC(=O)c2ccccc2C1=O  1.9
36. NC(=O)Nc1cccc(Cl)c1  1.82
37. CCC1C2CC3C4N(C)c5ccccc5C45CC(C2C5O)N3C1O (centres undefined)  1.81
38. CCOP(=O)(OCC)Oc1ccccc1  1.64
39. Nc1cnc2ccccc2c1  1.63
40. CCC(=O)Nc1ccccc1  1.61
41. COc1ccc(OC(=O)N(C)C)cc1  1.53
42. CCCCCN  1.49
43. CNC(=O)Oc1ccc([N+](=O)[O-])cc1  1.47
44. c1ccc(N2CCOCC2)cc1  1.36
45. COP(=O)(OC)Oc1ccc([N+](=O)[O-])cc1  1.33
46. CCCCn1cnc2c(N)ncnc21  1.25
47. Nc1cccc2ncccc12  1.16
48. CN(C)C(=O)Nc1ccc(F)cc1  1.13
49. O=C(OCn1ncc2c(=O)[nH]cnc21)c1ccc(CN2CCOCC2)cc1  1.12
50. CC(=O)N(C)c1ccccc1  1.12
51. NCc1ccc([N+](=O)[O-])cc1  1.06
52. CC(=O)COc1ccccc1  1.04
53. Nc1nc(N)c2nc(-c3ccccc3)c(N)nc2n1  0.98
54. CCCCCn1cnc2c(NC(C)=O)ncnc21  0.98
55. O=NN1CCCCCC1  0.92
56. CCCCn1cc(C)c(=O)[nH]c1=O  0.91
57. Cc1ncc([N+](=O)[O-])n1CCCl  0.88
58. CCOC(=O)C(F)F  0.87
59. NC(=O)c1cc([N+](=O)[O-])cc([N+](=O)[O-])c1  0.83
60. c1ccc(Cn2cnnc2)cc1  0.74
61. CC(=O)Nc1cccc(O)c1  0.73
62. CCN(CC)C(C)C(=O)OCn1ncc2c(=O)[nH]cnc21 (centres undefined)  0.72
63. CNC(=O)Oc1ccccc1C1OCCO1  0.67
64. FCCl  0.51
65. Oc1cccnc1  0.48
66. COc1cc(O)ccc1O  0.47
67. O=NN1CCSCC1  0.4
68. CCCOC(N)=O  0.36
69. C=CC#N  0.25
70. CNC(=O)c1ccco1  0.23
71. CC12CCC(=O)C=C1CCC1C2C(O)CC2(C)C1CCC2(O)C(=O)COC1OC(CO)C(O)C(O)C1O (centres undefined)  0.15
72. Cc1ccnc(NS(=O)(=O)c2ccc(N)cc2)n1  0.14
73. CNC(=S)N(C)C  0.1
74. NC(=O)c1cc(N2CC2)c([N+](=O)[O-])cc1[N+](=O)[O-]  -0.02
75. CCN(O)C(N)=O  -0.1
76. NC(=O)C1CCCN1C(=O)C(Cc1cn(C(=O)OCc2ccccc2)cn1)NC(=O)C1CCC(=O)N1 (centres undefined)  -0.11
77. C=CC(=O)OCCO  -0.21
78. C1COCCO1  -0.27
79. CCS(=O)(=O)CC  -0.59
80. Cc1c[nH]c(=O)[nH]c1=O  -0.62
81. Cc1[nH]cnc1CSCCNC1=NS(=O)(=O)CCN1  -0.74
82. Nc1ncnc2nn[nH]c12  -0.96
83. O=NN(CCCl)C(=O)NC1C(O)OC(CO)C(O)C1O (centres undefined)  -1.02
84. CC(=O)C(C)=O  -1.34
